The values below come from ChEMBL document CHEMBL1121544, “Synthesis, absorption, and toxicity of N1,N8-bis(2,3-dihydroxybenzoyl)spermidine, a potent iron chelator” (J Med Chem, 1980).

SMILES strings stand for the structures.

Common to all, as to assay type: functional, organism-based
For assay [1], the species on record is Rattus norvegicus. The assay is described as follows: % chelator inside the intestinal sac in animal 2 at lower (distal) segment of the intestine starting from the proximal end.
For assay [2], the species on record is Rattus norvegicus. As to the kind of experiment: % chelator inside the intestinal sac in animal 3 at middle segment of the intestine starting from the proximal end.
Assay [3] is filed under the species Rattus norvegicus. The assay is described as follows: % chelator inside the intestinal sac in animal 1 at upper segment of the intestine starting from the proximal end.
Assay [4] is filed under the species Rattus norvegicus. As to the kind of experiment: % chelator inside the intestinal sac in animal 1 at lower (distal) segment of the intestine starting from the proximal end.
For assay [5], the species on record is Rattus norvegicus. The assay is described as follows: % chelator inside the intestinal sac in animal 2 at middle segment of the intestine starting from the proximal end.
Assay [6] is filed under the species Rattus norvegicus. As to the kind of experiment: % chelator inside the intestinal sac in animal 1 at middle segment of the intestine starting from the proximal end.
For assay [7], the species on record is Rattus norvegicus. The assay is described as follows: % chelator inside the intestinal sac in animal 3 at upper segment of the intestine starting from the proximal end.
Assay [8] is filed under the species Rattus norvegicus. As to the kind of experiment: % chelator inside the intestinal sac in animal 2 at upper segment of the intestine starting from the proximal end.
The species entered for assay [9] is Rattus norvegicus. As to the kind of experiment: % chelator inside the intestinal sac in animal 3 at lower (distal) segment of the intestine starting from the proximal end.

On to `O=C(NCCCCNCCCNC(=O)c1cccc(O)c1O)c1cccc(O)c1O`, for which the Chelator in [1] was 32%; in [2] it was 44%; in assay [3], 42%; in assay [4] it was 44%; in assay [5] it was 35%; in assay [6] it was 40%. Further, the Chelator came out at 32% in assay [7], 33% in [8] and 50% in assay [9].
